# In patent US20130029970A1 (priority 2009, published 2013):
# Columns and labels:
# human CB2 (hCB2) = target: T1, human CB2 (hCB2) (Homo sapiens, UniProt P34972); test: 35S GTPγS binding assay, hCB2 agonist; type: biochemical; settings: GTPγS agonist, HEK-293 membranes; read-out: hCB2 EC50 (GTPyS ag)
# T1 construct: (cDNA clone) CNR0200000
# Summary of the method: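 Agonist-stimulated [35S]GTPγS (0.1 nM) binding measured by scintillation proximity after 90 min at room temperature. Reaction buffer: 50 mM HEPES pH 7.4, 100 mM NaCl, 5 mM MgCl2, 0.001% saponin plus 20 uM GDP. Membranes (5 μg) came from transfected cells expressing hCB2 cDNA (pcDNA3.1+ vector).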
# [1] = target: T2, recombinant human cannabinoid receptor CB2 (Homo sapiens, UniProt P34972); test: Cannabinoid receptor radioligand binding assay, [3H]-CP 55,940 displacement, hCB2
# T2 construct: (cDNA clone) CNR0200000
# Summary of the method: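 Receptor source: membrane pellet (40,000×g) from transfected cells, stored in HEPES pH 7.4/MgCl2/EDTA/sucrose buffer.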
# [2] = target: T3, recombinant human cannabinoid receptor CB1 (Homo sapiens, UniProt P21554); test: Cannabinoid receptor radioligand binding assay, [3H]-CP 55,940 displacement, hCB1
# T3 construct: (cDNA clone) CNR01L000
# Summary of the method: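 Displacement of 0.5 nM [3H]-CP 55,940 (1 μM unlabeled CP 55,940 for nonspecific) measured by filtration and scintillation counting. Binding ran 90 min at room temperature in pH 7.5 Tris buffer with 0.1% fatty-acid-free BSA, using recombinant hCB1 HEK-293 membranes at 2-10 μg protein.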
# T1 sequence (P34972 whole entry): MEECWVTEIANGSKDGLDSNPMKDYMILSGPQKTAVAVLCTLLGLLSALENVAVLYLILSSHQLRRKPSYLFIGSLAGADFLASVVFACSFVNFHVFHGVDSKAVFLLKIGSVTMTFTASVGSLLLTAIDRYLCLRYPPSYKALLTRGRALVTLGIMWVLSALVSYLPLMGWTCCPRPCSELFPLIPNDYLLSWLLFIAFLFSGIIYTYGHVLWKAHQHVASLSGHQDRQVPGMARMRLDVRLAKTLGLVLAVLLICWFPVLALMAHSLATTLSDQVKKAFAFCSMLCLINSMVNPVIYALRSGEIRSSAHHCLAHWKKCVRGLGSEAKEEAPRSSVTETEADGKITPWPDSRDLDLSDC
# T2 sequence (P34972 whole entry): as above
# T3 sequence (P21554 whole entry): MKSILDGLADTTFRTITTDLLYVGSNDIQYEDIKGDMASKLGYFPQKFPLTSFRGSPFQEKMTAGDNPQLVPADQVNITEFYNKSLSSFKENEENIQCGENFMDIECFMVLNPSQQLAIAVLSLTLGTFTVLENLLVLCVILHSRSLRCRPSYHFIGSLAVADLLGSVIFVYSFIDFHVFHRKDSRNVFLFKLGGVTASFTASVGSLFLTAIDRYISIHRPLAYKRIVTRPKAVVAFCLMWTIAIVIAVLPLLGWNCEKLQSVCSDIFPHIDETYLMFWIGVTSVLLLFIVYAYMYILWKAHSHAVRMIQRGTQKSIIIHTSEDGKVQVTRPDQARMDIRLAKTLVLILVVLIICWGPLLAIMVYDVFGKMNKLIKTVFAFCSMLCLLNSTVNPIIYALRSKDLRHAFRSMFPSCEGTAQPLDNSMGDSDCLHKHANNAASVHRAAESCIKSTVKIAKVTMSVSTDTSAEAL
SMILES,EC50 (human CB2 (hCB2)) [nM],IC50 [1] [nM],IC50 [2] [nM]
"COc1ccc(C(=O)c2cc3cc(C)n(CCN4CCCCC4)c3s2)cc1 [Compound 78, (4-Methoxyphenyl)(5-methyl-6-(2-(piperidin-1-yl)ethyl)-6H-thieno[2,3-b]pyrrol-2-yl)methanone]",< 100,< 100,1000 to 10000
"COc1ccc(C(=O)c2cc3cc(C)n(CCC4CCOCC4)c3s2)cc1 [Compound 82, (4-Methoxyphenyl)(5-methyl-6-(2-(tetrahydro-2H-pyran-4-yl)ethyl)-6H-thieno[2,3-b]pyrrol-2-yl)methanone]",< 100,< 100,100 to 1000
"COc1ccc(C(=O)c2cc3cc(C)n(Cc4ccccc4)c3s2)cc1 [Compound 84, (6-Benzyl-5-methyl-6H-thieno[2,3-b]pyrrol-2-yl)(4-methoxyphenyl)methanone]",100 to 1000,100 to 1000,1000 to 10000
"COc1ccc(C(=O)c2cc3cc(C)n(CCCCl)c3s2)c(Cl)c1 [Compound 85, (2-Chloro-4-methoxyphenyl)(6-(3-chloropropyl)-5-methyl-6H-thieno[2,3-b]pyrrol-2-yl)methanone]",< 100,< 100,1000 to 10000
"COc1ccc(C(=O)c2cc3cc(C)n(CCCNS(C)(=O)=O)c3s2)c(F)c1 [Compound 87, N-(3-(2-(2-Fluoro-4-methoxybenzoyl)-5-methyl-6H-thieno[2,3-b]pyrrol-6-yl)propyl)methanesulfonamide]",< 100,100 to 1000,> 10000
"COc1ccc(C(=O)c2cc3cc(C)n(CCCNS(C)(=O)=O)c3s2)c(Cl)c1 [Compound 91, N-(3-(2-(2-Chloro-4-methoxybenzoyl)-5-methyl-6H-thieno[2,3-b]pyrrol-6-yl)propyl)methanesulfonamide]",< 100,< 100,> 10000
"COc1ccc(C(=O)c2cc3cc(C)n(CCN4CCOCC4)c3s2)c(C(F)(F)F)c1 [Compound 119, (4-Methoxy-2-(trifluoromethyl)phenyl)(5-methyl-6-(2-morpholinoethyl)-6H-thieno[2,3-b]pyrrol-2-yl)methanone]",< 100,< 100,1000 to 10000
"COc1ccc(C(=O)c2cc3cc(C)n(CCN4CCOCC4)c3s2)c(OC)c1 [Compound 120, (2,4-Dimethoxyphenyl)(5-methyl-6-(2-morpholinoethyl)-6H-thieno[2,3-b]pyrrol-2-yl)methanone]",< 100,< 100,100 to 1000
"Cc1ccc(C(=N)c2cc3cc(C)n(CCN4CCOCC4)c3s2)cc1 [Compound 121, (5-methyl-6-(2-morpholinoethyl)-6H-thieno[2,3-b]pyrrol-2-yl)(p-tolyl)methanimine]",< 100,100 to 1000,1000 to 10000
"CCOc1ccc(C(=O)c2cc3cc(C)n(CCN4CCOCC4)c3s2)c(Cl)c1 [Compound 126, (2-chloro-4-ethoxyphenyl)(5-methyl-6-(2-morpholinoethyl)-6H-thieno[2,3-b]pyrrol-2-yl)methanone]",< 100,< 100,100 to 1000
"COc1ccc(C(=O)c2cc3cc(C)n(CCN4CCOCC4)c3s2)cc1F [Compound 128, (3-fluoro-4-methoxyphenyl)(5-methyl-6-(2-morpholinoethyl)-6H-thieno[2,3-b]pyrrol-2-yl)methanone]",< 100,100 to 1000,1000 to 10000
"Cc1cc2cc(C(=O)c3ccc(C#N)cc3)sc2n1CCN1CCOCC1 [Compound 129, 4-(5-methyl-6-(2-morpholinoethyl)-6H-thieno[2,3-b]pyrrole-2-carbonyl)benzonitrile]",< 100,100 to 1000,1000 to 10000
"COc1cc(F)ccc1C(=O)c1cc2cc(C)n(CCN3CCOCC3)c2s1 [Compound 133, (4-fluoro-2-methoxyphenyl)(5-methyl-6-(2-morpholinoethyl)-6H-thieno[2,3-b]pyrrol-2-yl)methanone]",< 100,< 100,100 to 1000
"Cc1cc2cc(C(=O)c3ccc(F)cc3F)sc2n1CCN1CCOCC1 [Compound 135, (2,4-difluorophenyl)(5-methyl-6-(2-morpholinoethyl)-6H-thieno[2,3-b]pyrrol-2-yl)methanone]",100 to 1000,100 to 1000,1000 to 10000
"COc1ccc(C(=O)c2cc3cc(C)n(CCN4CCOCC4)c3s2)c(C)n1 [Compound 136, (6-methoxy-2-methylpyridin-3-yl)(5-methyl-6-(2-morpholinoethyl)-6H-thieno[2,3-b]pyrrol-2-yl)methanone]",< 100,< 100,1000 to 10000
"COc1ccc(C(O)(c2cc3cc(C)n(CCN4CCOCC4)c3s2)C(F)(F)F)cc1 (stereo not drawn) [Compound 138, 2,2,2-trifluoro-1-(4-methoxyphenyl)-1-(5-methyl-6-(2-morpholinoethyl)-6H-thieno[2,3-b]pyrrol-2-yl)ethanol]",< 100,100 to 1000,1000 to 10000
"COc1ccc(C(=O)c2cc3cc(C)n(S(=O)(=O)CCN4CCOCC4)c3s2)cc1 [Compound 139, (4-methoxyphenyl)(5-methyl-6-(2-morpholinoethylsulfonyl)-6H-thieno[2,3-b]pyrrol-2-yl)methanone]",< 100,< 100,100 to 1000
"COc1ccc(C(c2cc3cc(C)n(CCN4CCOCC4)c3s2)C(F)(F)F)cc1 (stereo not drawn) [Compound 141, 4-(2-(5-methyl-2-(2,2,2-trifluoro-1-(4-methoxyphenyl)ethyl)-6H-thieno[2,3-b]pyrrol-6-yl)ethyl)morpholine]",100 to 1000,100 to 1000,1000 to 10000
"COc1ccc(C(=O)c2cc3cc(C)n(CCN4CCC(OC)C4)c3s2)cn1 (stereo not drawn) [Compound 147, (6-methoxypyridin-3-yl)(6-(2-(3-methoxypyrrolidin-1-yl)ethyl)-5-methyl-6H-thieno[2,3-b]pyrrol-2-yl)methanone]",100 to 1000,1000 to 10000,> 10000
